{"source": "patent US11590117B2", "about": "“Treatment of a hematologic malignancy with 2-(4-chlorophenyl)-n-((2-(2,6-dioxopiperidin-3-yl)-1-oxoisoindolin-5-yl)methyl)-2,2-difluoroacetamide” (priority 2016, dated 2023)", "key": {"HNT-34 cells and PBMCs [1]": {"system": "HNT-34 cells and PBMCs", "assay": "Flow cytometry caspase 3/7 assay", "assay_type": "cell-based, human", "conditions": "HNT-34 cells over non-pre-activated PBMCs; 0.1 μM Compound 1; 72 hours", "description": "Cell Apoptosis Assays: The ability of Compound 1 to induce apoptosis was assessed in selected AML cell lines and healthy PBMCs at the time points and compound concentrations indicated. For Annexin V/7-AAD readout by flow cytometry, AML cell lines were plated into flat bottom 96-well plates (BD Falcon) at a seeding density of 0.1 to 0.3×10^6 cells per mL in 200 μL complete media. Compound 1 was dispensed onto the plates and the cells were incubated for the times indicated. For frozen PBMCs, cells were thawed as previously described and plated at a seeding density of 1×10^6 cells per mL in 200 μL on Corning® BioCoat™ T-Cell Activation Anti-Human CD3 96-well plates (Corning Inc., Corning, N.Y.). Compound 1 was dispensed onto the plates and the cells were incubated for the times indicated. […] One hundred microliters of Annexin V/7-AAD buffer was added per well and the cells incubated for 15 minutes before being analyzed using the Attune Flow Cytometer (Life Technologies, Carlsbad, Calif.). For caspase 3/7 activity, the remaining 100 μL was incubated with CellEvent™ Caspase-3/7 Green ReadyProbes® Reagent (1:1000 dilution; Molecular Probes) for 15 minutes before being analyzed using the Attune Flow Cytometer. […]\nThe effects of Compound 1 in healthy PBMCs were also assessed. Compound 1 was added to PBMC s from one donor at time zero and assessed at 72 hours. […]"}, "HNT-34 cells and PBMCs [2]": {"system": "HNT-34 cells and PBMCs", "assay": "JC-1 mitochondrial membrane potential assay", "assay_type": "cell-based, human", "conditions": "HNT-34 cells over non-pre-activated PBMCs; 0.1 μM Compound 1; 72 hours"}, "[3]": {"system": "Bone marrow CD34+ cells from healthy donors (myeloid differentiation)", "assay": "Neutrophil maturation ex vivo, bone marrow CD34+ cells, flow cytometry", "assay_type": "cell-based", "description": "Compound 1 effects on the proliferation of CFU-GM progenitor cells are of special relevance because of the role of these progenitor cells in drug-induced neutropenia. Neutrophils are derived from CFU-GM progenitors occurring through distinct stages, from progenitor cells through myeloblasts (stage I), promyelocytes (stage II) and myelocytes (stage III) that finally mature towards neutrophils with banded or segmented nuclei. The effects of Compound 1 on neutrophil maturation were determined by using two-dimensional cultivation of progenitors followed by flow cytometry. Bone marrow CD34+ cells obtained from healthy volunteers were transferred to tissue culture medium and myeloid differentiation was induced ex vivo by adding stem cell factor (SCF), Fms-related tyrosine kinase 3 ligand (Flt-3 ligand), and granulocyte colony stimulating factor (G-CSF). Concentrations of Compound 1 up to 30 nM and exposure times of 8, 24, and 72 hours starting at Day 0 were selected to evaluate the effect of Compound 1 in this system. After exposure to Compound 1, cells were washed and then incubated in culture medium in the absence of Compound 1 until Day 14. Cell differentiation and apoptosis were measured in a flow cytometry-based method at Days 3, 7, 10, and 14 of culture, with apoptotic and dead cells identified as Annexin V positive and 7-aminoactinomycin D positive.\nIn FIG. 34, Bone marrow C34+ cells from healthy donors were incubated with 30 nM Compound 1 or DMSO. Compound 1 was washed out after 8, 24 or 72 hours, the medium was replaced, and the cultures were incubated until Day 14 in the absence of Compound 1 or DMSO. Cells were classified from most immature to most mature as HPC, Stage I, Stage II, Stage III and Stage IV according to their expression of CD34, CD33 and CD11b. Then apoptotic cells from each stage were identified as positive for Annexin V and labeled as AV+ HPC, AV+ Stage I, AV+ Stage II, AV+ Stage II and AV+ Stage IV. […] Representative results are shown for bone marrow progenitors from one of two healthy donors evaluated. […]"}, "[4]": {"system": "HR-MDS, sAML and normal bone marrow progenitors", "assay": "SL/M2 stromal co-culture colony forming assay (cell survival assay)", "assay_type": "cell-based, human", "description": "Methods. Mouse stromal cells SL/M2 stably expressing human interleukin-3 (IL-3), granulocyte colony stimulating factor (G-CSF) and stem cell factor (SCF) were cultured to confluency, followed by gamma-irradiation. Human CD34+ bone marrow cells isolated from 3 high-risk MDS patients (HR-MDS), 3 secondary AML patients arising from MDS (sAML) and 5 age-matched healthy donors were then cultured with inactivated SL/M2 cells for a week. Next, human progenitor cells were quantified by FACS and cells were plated in methylcellulose for colony forming assay (cell survival assay). After two weeks, 20-25 colonies were picked from each condition, resuspended and replated in fresh methylcellulose for 2nd round of colony forming assay (cell self-renewal assay)."}}, "data": [{"smiles": "O=C1CCC(N2Cc3cc(CNC(=O)C(F)(F)c4ccc(Cl)cc4)ccc3C2=O)C(=O)N1", "note": "(stereo not drawn) [Compound 1, 2-(4-chlorophenyl)-N-((2-(2,6-dioxopiperidin-3-yl)-1-oxoisoindolin-5-yl)methyl)-2,2-difluoroacetamide]", "values": [{"measurement": "difference in elevation of caspase 3/7 activity", "setting": "HNT-34 cells and PBMCs [1]", "result": "~3", "unit": "fold"}, {"measurement": "difference in increase of membrane depolarization", "setting": "HNT-34 cells and PBMCs [2]", "result": "~7", "unit": "fold"}, {"measurement": "viability during neutrophil maturation", "setting": "[3]; 30 nM (highest concentration tested), exposure 24 hours and 72 hours", "result": "decreased"}, {"measurement": "cell viability after removal of Compound 1", "setting": "[3]; 30 nM, cultures exposed for 24 hours", "result": "reaching control values at Day 10"}, {"measurement": "viability during neutrophil maturation", "setting": "[3]; ≤3 nM in 24-hour and 72-hour exposure groups, or 0.03 to 30 nM with 8 hours exposure", "result": "no reduction in viability"}, {"measurement": "colony formation (cell survival)", "setting": "[4]", "result": "significant cytotoxicity"}]}]}
